Laboratory results reported in US20150315218A1, “SALTS OF PRODRUGS OF PIPERAZINE AND SUBSTITUTED PIPERIDINE ANTIVIRAL AGENTS” (Bristol-Myers Squibb Company, priority 2004, published 2015).
Values after ≈ are worked out from the molar mass of the structure shown. Read-outs that look alike come from different tables or passages of the source.

How the values were obtained:
[1] = Oral dosing studies of prodrugs Ie and If in rats (Table 47); type: in vivo, rat; settings: for parent molecule in plasma following PO dosing of prodrug: rats, oral dosing of prodrug Ie or If
Protocol: Prodrug Ie was dosed orally to rats using methodology similar to that described above for the other prodrugs. […] Prodrug If was dosed orally to rats using methodology similar to that described above for the other prodrugs.

[2] = target: T1, alkaline phosphatase (human placenta, Sigma) (Homo sapiens, UniProt P05187); assay: In vitro conversion in alkaline phosphatase (Table 1, note 1); type: in vitro ADME; settings: ~0.2 mM prodrug, ~1.4 unit ALP, pH 8 Tris buffer; full wording: Complete and rapid conversion to parent without any intermediate formation
T1 construct: Qualitative in vitro studies using human placental alkaline phosphatase; purchased Sigma; host or cells: human placenta (as the result head says)
T1 sequence (P05187 23-506 limits assumed): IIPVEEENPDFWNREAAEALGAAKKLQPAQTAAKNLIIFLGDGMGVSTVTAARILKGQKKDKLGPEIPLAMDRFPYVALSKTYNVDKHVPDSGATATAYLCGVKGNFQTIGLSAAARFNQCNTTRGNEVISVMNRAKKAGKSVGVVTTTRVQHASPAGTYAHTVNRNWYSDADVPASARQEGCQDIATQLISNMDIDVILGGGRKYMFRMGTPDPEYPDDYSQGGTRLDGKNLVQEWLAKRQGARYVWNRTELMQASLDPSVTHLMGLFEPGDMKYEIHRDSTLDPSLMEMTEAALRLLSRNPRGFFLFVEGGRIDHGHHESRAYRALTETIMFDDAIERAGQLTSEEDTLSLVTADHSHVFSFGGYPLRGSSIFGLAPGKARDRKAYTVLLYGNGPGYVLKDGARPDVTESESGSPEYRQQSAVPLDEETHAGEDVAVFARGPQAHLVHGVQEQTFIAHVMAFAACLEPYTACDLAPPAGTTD

physchem = settings: pH 6.5, aqueous buffer
[3] = tested on: HIV-1 T-tropic strain LAI; assay: Antiviral assay: HIV-1 LAI infection of MT-2 cells, reverse transcriptase readout (EC50, Table 48); type: cell-based; settings: Human immunodeficiency virus 1, MT2, read-out: EC50-LAI
Excerpt: The materials and experimental procedures used to assess the anti-HIV activity of the parent compounds which are generated from the prodrugs in vivo are described below:
• The human T cell line MT-2 and PM1 (AIDS Research and Reference Reagent Program, National Institutes of Health) were maintained and propagated in Medium RPMI-1640 (Invitrogen, Carlsbad, Calif.), containing 10% fetal Bovine serum. (FBS, Sigma, St. Louis, Mo.).
• Laboratory strains of HIV-1—the T-tropic strain LAI was obtained through the AIDS Research and Reference Reagent Program, National Institutes of Health. It was amplified in MT-2 cells and titered using a virus yield assay (2). Detection was achieved through use of a reverse transcriptase assay (3), adapted for use with a Scintillation Proximity detection protocol (1) (Amersham Biosciences, Piscataway, N.J.).
• 1. Compounds stocks were prepared by dissolving in DMSO to 30 mM. For dilution plates, compounds were serially diluted 3-fold into DMSO, using 96-well polypropylene plates, so that the concentrations were 100-fold greater than the final assay concentration. For antiviral and cytotoxicity assays, 2 μl was added per well (1% final DMSO concentration). • 2. Compounds were added from dilution plates to 96 well tissue culture plates, containing 100 μl Medium RPMI-1640, containing 10% fetal bovine serum at a concentration of <20 μM. • 3. For antiviral assays, cells were infected at a multiplicity of infection of 0.005. After 1 h at 37° C., infected cells were diluted to 200,000 cells per ml in Medium RPMI-1640, containing 10% fetal bovine serum. 100 μl of this solution was added per well, giving a final volume of 200 μl. • 4. Plates were incubated at 37° C. in a humidified CO2 incubator and harvested after 5 days. • 5. Viral infections were monitored by measuring reverse transcriptase activity in the supernatants of infected wells as described above. The percent inhibition for each compound was calculated by quantifying the readout level in cells infected in the presence of each compound as a percentage of that observed for cells infected in the absence of compound and subtracting such a determined value from 100. • 6. An EC50 provides a method for comparing the antiviral potency of the compounds of this invention. The effective concentration for fifty percent inhibition (EC50) was calculated with the Microsoft Excel Xlfit curve fitting software. For each compound, curves were generated from percent inhibition calculated at 8 different concentrations by using a four paramenter logistic model (model 205).

[4] = Cytotoxicity assay (XTT dye reduction) in MT-2 cells; type: cell-based; settings: human, six days
Protocol: Cytotoxicity assays were conducted with the same MT-2 cells, using methodology well known in the art. […] 50 μl of XTT reagent (1 mg/ml 2,3-bis[2-methoxy-4-nitro-5-sulfophenyl]-2H-tetrazolium-5-carboxanilide, 10 μg/ml phenazine methosulfate dissolved in phosphate buffered saline) was added to each well and incubated for 3 hours. Color formation by actively respiring cells was quantitated in a plate reader at 450 nm, and used to determine a CC50.

[5] = IV and oral rat PK (MAP) studies A, B, C of phosphate prodrugs and parent studies A1, B1, C1; type: in vivo, Sprague-Dawley rats; settings: for In vivo conversion in Rats-iv (note 2) MAP study: dose equiv. to 1 mg/Kg of the parent; for In vivo conversion in Rats-iv (note 2) MAP study / In vivo conversion in Rats-oral (note 2) MAP study: full wording: Rapid generation of parent in plasma; for clearance / Vd / half-life: male, Sprague-Dawley, rat, 1 mg/kg; for clearance / Vd / half-life / AUC 0-24 h (μM * hr) / Cmax (uM) / Cp @ 24 hr p.o. (nM): rats; for clearance / Vd: prodrug IV equivalent to 1 mpk of parent; for clearance: read-out: CL i.v.; for Vd: read-out: Vss i.v.; for half-life: after IV prodrug dosing equivalent to 1 mpk of parent, read-out: T1/2 i.v. (converted); for half-life / AUC 0-24 h (μM * hr) / Cmax (uM) / Cp @ 24 hr p.o. (nM): analyte = label; for In vivo conversion in Rats-oral (note 2) MAP study: dose equiv. to 5 mg/Kg of the parent; for AUC 0-24 h (μM * hr) / Cmax (uM) / Cp @ 24 hr p.o. (nM): after PO prodrug dosing equivalent to 5 mpk of parent
Protocol: The rats for oral dosing studies were fasted overnight. […] The dosing solutions of all three prodrugs for both IV and oral administration were prepared in 100% normal saline at 1 mg/mL (dosing solution concentrations were parent compound equivalent). Plasma samples were collected in EDTA vacutainers over 24 hrs, and analyzed by LC/MS/MS for both the prodrugs and parent molecules. Pharmacokinetic analysis was performed on Kinetica™.
Plasma and tissue samples were collected and stored at −20° C. until analysis. […] Rats were fasted overnight in PO studies. […] In the PO studies, rats (n=3) received PO doses of 5 and 100 mg/kg.
Male Sprague-Dawley rats (300-350 g, Hilltop Lab Animals, Inc., Scottdale, Pa.) with cannulas implanted in the jugular vein and/or bile duct were used. The rats were fasted overnight in the PO pharmacokinetic studies. Blood samples of 0.3 ml were collected from the jugular vein in EDTA-containing microtainer tubes (Becton Dickinson, Franklin Lakes, N.J.), and centrifuged to separate plasma.

[6] = 2-week oral dose rat toxicology / TK study F; type: in vivo; settings: for AUC(0-t): Sprague-Dawley, rat, plasma, oral, dosages 200 mg/kg/day, read-out: AUC0-24 h on Day 14
Protocol: In the 2-week oral rat study F (n=six/sex/group), Compound IVe was administered at daily doses of 15, 75, or 200 mg/kg. […] On Day 14, AUC0-24 h values were slightly higher in females (≦644 μg*hr/ml) compared to males (526.88 μg*hr/ml) at dosages 200 mg/kg/day. The oral (PO) results from Study F are in Table 5.

For `O=C(C(=O)N1CCN(c2ncnc3ccccc23)CC1)c1c[nH]c2c(-n3ccnn3)ncc(F)c12` [IVf], the “parent molecule in plasma following PO dosing of prodrug” value [1] was “detected in the plasma”.
For `COc1cnc(-n2cnc(C)n2)c2c1c(C(=O)C(=O)N1CCN(C(=O)c3ccccc3)CC1)cn2COP(=O)(O)O` [Ic], the “In vitro conversion in Alkaline phosphatase (note 1)” value (“In vitro conversion” below) [2] was “Complete” and the solubility (physchem) was 1000 µg/mL (≈ 1710 µM).
With `COc1cnc(-n2ccc(C)n2)c2[nH]cc(C(=O)C(=O)N3CCN(C(=O)c4ccccc4)[C@H](C)C3)c12` [IVd] the EC50 [3] was under 1 µM and the CC50 at 6 days [4] was over 10 µM.
For `COc1cnc(OC)c2c1c(C(=O)C(=O)N1CCN(C(=O)c3ccccc3)CC1)cn2COP(=O)(O)O` [Ia], the “In vitro conversion” value [2] was “Complete”, the “In vivo conversion in Rats-iv (note 2) MAP study” value [5] was “Rapid” and the clearance ([5]; plasma) was 16 ± 0.95 mL/min/kg. The Vd ([5]; plasma) was 0.095 ± 0.001 L/kg, the half-life ([5]; plasma, iv) was 8.4 ± 1.2 min and the “In vivo conversion in Rats-oral (note 2) MAP study” value [5] was “Rapid”. For the same molecule, the “AUC 0-24 h (μM * hr)” value [5] was “LLQ”, the “Cmax (uM)” value [5] was “LLQ” and the “Cp @ 24 hr p.o. (nM)” value [5] was “LLQ”. For the same molecule, the solubility (physchem) was over 18000 µg/mL.
In the case of `COc1cnc(-n2cnc(C)n2)c2c1c(C(=O)C(=O)N1CCC(=C(C#N)c3ccccn3)CC1)cn2COP(=O)(OC(C)(C)C)OC(C)(C)C` [IIe], the “F (%) (calc on historical IV data for parent)” value ([1]; rat, diester prodrug IIe PO 7.0 mg/kg (IVe eq), PK of IVe only) is reported as 7.7% and the “Cp @ 24 hr p.o.” value ([1]; rat, diester prodrug IIe PO 7.0 mg/kg (IVe eq), PK of IVe only, 1/3 rats) is reported as 8.17 (1/3 rats) nM.
In the case of `COc1cnc(-n2cnc(C)n2)c2[nH]cc(C(=O)C(=O)N3CCC(=C(C#N)c4ccccn4)CC3)c12` [IVe, 2-(1-(2-(4-methoxy-7-(3-methyl-1H-1,2,4-triazol-1-yl)-1H-pyrrolo[2,3-c]pyridin-3-yl)-2-oxoacetyl)piperidin-4-ylidene)-2-(pyridin-2-yl)acetonitrile], the AUC(0-t) ([6]; female, females) is reported as at most 644 µg·h/mL, the AUC(0-t) ([6]; male, males) is reported as 527 µg·h/mL and the autoinduction or accumulation ([6]; toxicokinetic evaluations on days 1 and 14) is reported as “no evidence of autoinduction or accumulation”. The “parent molecule in plasma following PO dosing of prodrug” value [1] was “detected in the plasma”.
For `O=C(C(=O)N1CCN(C(=O)c2ccccc2)CC1)c1cn(COP(=O)([O-])[O-])c2c(-n3ccnn3)ncc(F)c12.[Na+].[Na+]` [Ib], the “In vitro conversion” value [2] was “Complete”, the “In vivo conversion in Rats-iv (note 2) MAP study” value [5] was “Rapid” and the half-life ([5]; in vivo) was 108 ± 72 min. For the same molecule, the clearance ([5]; in vivo) was 46 ± 10 mL/min/kg, the Vd ([5]; in vivo) was 0.97 ± 0.47 L/kg and the “In vivo conversion in Rats-oral (note 2) MAP study” value [5] was “Rapid”. For the same molecule, the “AUC 0-24 h (μM * hr)” value [5] was “LLQ”, the “Cmax (uM)” value [5] was “LLQ” and the “Cp @ 24 hr p.o. (nM)” value [5] was “LLQ”. For the same molecule, the solubility (physchem) was over 8000 µg/mL.
